Experimental data from patent US12441717B2, “Crystal form of polycyclic anaplastic lymphoma kinase inhibitor” (SHANDONG XUANZHU PHARMA CO., LTD., priority 2020, dated 2025).
Where “and” joins values, the source holds several entries; their conditions need not be identical. Equal values may be shown once.

How the values were obtained:
Format in all cases: physicochemical
[1] = Stability study (high temperature, high humidity, light): properties, related substances, moisture, XRD; settings: for Stability under high temperature, high humidity and light conditions (conclusion): overall conclusion of the stability study
Experimental: 2.1 Study Conditions for Crystal Form B of the Compound of Formula (1): • Placed at 105° C. for 5 days, left open, and sampled and tested on days 1 and 5; • placed at 60° C. for 10 days, left open, and sampled and tested on days 5 and 10; • placed under 25° C. RH 92.5% conditions for 10 days, left open, and sampled and tested on days 5 and 10; • under light conditions, using open and closed conditions (polyethylene bag+composite film bag), and sampling and testing when illumination requirements were met; and • placed under 40° C. RH 75% conditions for 1 month, left open, and sampled and tested on day 10 and after 1 month.
2.2 Study Conditions for Crystal Form a of the Compound of Formula (1): • Placed at 105° C. for 5 days, left open, and sampled and tested on days 1 and 5; • placed at 60° C. for 10 days, left open, and sampled and tested on days 5 and 10; • placed under 25° C. RH 92.5% conditions for 10 days, left open, and sampled and tested on days 5 and 10; • under light conditions, left open, and sampled and tested when illumination requirements were met; and • placed under 40° C. RH 75% conditions for 10 days, left open, and sampled and tested on days 5 and 10.
2.3 Study Conditions for the Amorphous Form of the Compound of Formula (1): • Placed at 60° C. for 10 days, left open, and sampled and tested on day 10; placed under 25° C. RH 92.5% conditions for 10 days, left open, and sampled and tested on day 10; and • under light conditions, using open and closed conditions (polyethylene bag+composite film bag), and sampling and testing when illumination requirements were met.
Illumination requirements: ICH Q1B Stability Test: Photostability Testing of New Drug Substances and formulation.
Determination of related substances: Determination by high performance liquid chromatography in accordance with “Chinese Pharmacopoeia”, 2015 edition, Vol. four, General Principle 0512.
Moisture determination: Determination according to “Chinese Pharmacopoeia”, 2015 edition, vol. four, General Principle 0832, Moisture Determination Method, First Method (Fischer's method), 2 Coulometric Titration Method.
XRD determination: Determination according to “Chinese Pharmacopoeia”, 2015 edition, vol. four, General Principle 0451 X-ray Diffraction Method—Second Method, Powder X-ray Diffraction Method.

[2] = Solubility in buffered salt solutions of different pH (HPLC external standard); settings: for solubility at 24 h: buffered salt solution, 25 °C, thermodynamic from solid
From the text: The solubility (mg/mL) of crystal forms A and B and the amorphous form of the compound of formula (1) under different pH conditions were as shown in Table 1.

[3] = Fluidity after universal pulverization (angle of repose, Carr's index, electrostatic phenomenon); settings: for Angle of repose / Carr's index % / ρbulk / ρtapped: after universal pulverization
Experimental: The amorphous form and crystal forms A and B of the compound of formula (1) were treated by universal pulverization.
The fluidity of the crystal form could be characterized by the angle of repose and the Carr's index. It was generally believed that the smaller the angle of repose and the Carr's index, the better the fluidity.

[4] = Moisture absorbability test (Chinese Pharmacopoeia 2015, General Principle 9103); settings: for Moisture absorbability results: wrapped cells end with 'absorbability'
From the text: A Test sample was taken and determined according to Chinese Pharmacopoeia, 2015 edition, vol. four, General Principle 9103, Guiding Principles for Drug Moisture Absorbability Test.

[5] = Day 0, coulometric Fischer titration
[6] = Day 0, related substances by HPLC
[7] = Day 10, at 25° C. RH 92.5%, open
[8] = Light - closed (polyethylene bag+composite film bag), ICH Q1B illumination
[9] = Light - closed, ICH Q1B illumination
[10] = Light - open, ICH Q1B illumination
[11] = Light - open, pattern compared with day 0
[12] = buffered salt solution pH 1.0, shaken at 25° C. for 24 h
[13] = buffered salt solution pH 4.5, shaken at 25° C. for 24 h
[14] = buffered salt solution pH 6.8, shaken at 25° C. for 24 h
[15] = buffered salt solution pH 7.4, shaken at 25° C. for 24 h
[16] = Day 5, at 25° C. RH 92.5%, open

## Cc1cc(Nc2ncc(Cl)c(Nc3ccccc3S(=O)(=O)C(C)C)n2)c2c(c1C1CCNCC1)OCCO2 [Amorphous form, 5-chloro-N^4-(2-(isopropylsulfonyl)phenyl)-N^2-(7-methyl-8-(piperidin-4-yl)-2,3-dihydrobenzo[b][1,4]dioxin-5-yl)pyrimidine-2,4-diamine]
[1]; Day 0
  Properties: Off-white powder
[1]; [5]
  Moisture %: 0.92%
[1]; [6]
  Overall related %: 0.84%
[1]; [7]
  Moisture %: 6.9%
  Overall related %: 0.90%
  Properties: Off-white powder
[1]; Day 10, at 25° C. RH 92.5%, open, pattern compared with day 0 (wrapped cell reads 'same as day 0')
  XRD: Same as day 0
[1]; Day 10, at 60° C., open
  Moisture %: 0.69%
  Overall related %: 1.78%
  Properties: Light yellow powder
[1]; Day 10, at 60° C., open, pattern compared with day 0 (wrapped cell reads 'same as day 0')
  XRD: Same as day 0
[1]; [8]
  Properties: Off-white powder
[1]; [9]
  Moisture %: 0.62%
  Overall related %: 0.88%
[1]; Light - closed, pattern compared with day 0 (wrapped cell reads 'same as day 0')
  XRD: Same as day 0
[1]; [10]
  Moisture %: 2.3%
  Overall related %: 10.19%
  Properties: Light yellow powder
[1]; [11]
  XRD: Same as day 0
[1]
  Stability under high temperature, high humidity and light conditions (conclusion): unstable
[2]; [12]
  Solubility: 11200 µg/mL
[2]; [13]
  Solubility: 17 µg/mL
[2]; [14]
  Solubility: 10 µg/mL
[2]; [15]
  Solubility: 8.7 µg/mL
[3]
  Electrostatic phenomenon after pulverization: serious electrostatic phenomenon
  Angle of repose: 50.6 °
[4]
  Hygroscopic weight gain (%): 2.8%
  Moisture absorbability results: Having moisture

## Cc1cc(Nc2ncc(Cl)c(Nc3ccccc3S(=O)(=O)C(C)C)n2)c2c(c1C1CCNCC1)OCCO2 [Crystal form A, 5-chloro-N^4-(2-(isopropylsulfonyl)phenyl)-N^2-(7-methyl-8-(piperidin-4-yl)-2,3-dihydrobenzo[b][1,4]dioxin-5-yl)pyrimidine-2,4-diamine]
[1]; Day 0
  Properties: Off-white powder
[1]; [5]
  Moisture %: 0.25%
[1]; [6]
  Overall related %: 0.64%
[1]; Day 1, at 105° C., open
  Moisture %: 0.18%
  Overall related %: 0.78%
  Properties: Off-white powder
[1]; [16]
  Moisture %: 0.23%
  Overall related %: 0.69%
  Properties: Off-white powder
[1]; Day 5, at 40° C. RH 75%, open
  Moisture %: 0.23%
  Overall related %: 0.79%
  Properties: Off-white powder
[1]; Day 5, at 60° C., open
  Moisture %: 0.17%
  Overall related %: 0.81%
  Properties: Off-white powder
[1]; Day 5, at 105° C., open
  Moisture %: 0.17%
  Overall related %: 1.6%
  Properties: Off-white powder
[1]; [7]
  Moisture %: 0.17%
  Overall related %: 0.78%
  Properties: Off-white powder
[1]; Day 10, at 40° C. RH 75%, open
  Moisture %: 0.15%
  Overall related %: 0.89%
  Properties: Off-white powder
[1]; Day 10, at 60° C., open
  Moisture %: 0.11%
  Overall related %: 1.0%
  Properties: Off-white powder
[1]; [10]
  Moisture %: 0.23%
  Overall related %: 1.9%
  Properties: Light yellow powder
[1]; [11]
  XRD: Same as day 0
[1]
  Stability under high temperature, high humidity and light conditions (conclusion): relatively stable
[2]; [13]
  Solubility: 2 µg/mL
[2]; [14]
  Solubility: Not detected
[2]; [15]
  Solubility: Not detected
[2]; pH 1, simulated gastric fluid, buffered salt solution pH 1.0, shaken at 25° C. for 24 h
  solubility at 24 h: 16900 µg/mL
[3]
  Electrostatic phenomenon after pulverization: no obvious electrostatic phenomenon
  Angle of repose: 53 °
  Carr's index %: 45%
  ρbulk: 0.35 g/mL
  ρtapped: 0.63 g/mL
[4]
  Hygroscopic weight gain (%): 0.08%
  Moisture absorbability results: no or almost no moisture absorbability

## Cc1cc(Nc2ncc(Cl)c(Nc3ccccc3S(=O)(=O)C(C)C)n2)c2c(c1C1CCNCC1)OCCO2 [Crystal form B, 5-chloro-N^4-(2-(isopropylsulfonyl)phenyl)-N^2-(7-methyl-8-(piperidin-4-yl)-2,3-dihydrobenzo[b][1,4]dioxin-5-yl)pyrimidine-2,4-diamine]
[1]; 1 M, at 40° C. RH 75%, open
  Moisture %: 0.39%
  Overall related %: 0.11%
  Properties: Off-white crystalline
[1]; [5]
  Moisture %: 0.38% and 0.27%
[1]; [6]
  Overall related %: 0.09% and 0.10%
[1]; Day 1, at 105° C., open
  Moisture %: 0.34%
  Overall related %: 0.10%
  Properties: Off-white crystalline
[1]; [16]
  Moisture %: 0.37%
  Overall related %: 0.07%
  Properties: Off-white crystalline
[1]; Day 5, at 60° C., open
  Moisture %: 0.26%
  Overall related %: 0.08%
  Properties: Off-white crystalline
[1]; Day 5, at 105° C., open
  Moisture %: 0.37%
  Overall related %: 0.08%
  Properties: Off-white crystalline
[1]; [7]
  Moisture %: 0.43%
  Overall related %: 0.10%
  Properties: Off-white crystalline
[1]; Day 10, at 40° C. RH 75%, open
  Moisture %: 0.42%
  Overall related %: 0.09%
  Properties: Off-white crystalline
[1]; Day 10, at 60° C., open
  Moisture %: 0.45%
  Overall related %: 0.10%
  Properties: Off-white crystalline
[1]; [8]
  Properties: Off-white crystalline
[1]; [9]
  Moisture %: 0.41%
  Overall related %: 0.10%
[1]; [10]
  Moisture %: 0.21%
  Overall related %: 0.54%
  Properties: Yellow powder
[1]; [11]
  XRD: Same as day 0
[1]
  Stability under high temperature, high humidity and light conditions (conclusion): relatively stable
[2]; [12]
  Solubility: 19800 µg/mL
[2]; [13]
  Solubility: 22 µg/mL
[2]; pH 6.8, aqueous buffer, buffered salt solution pH 6.8, shaken at 25° C. for 24 h
  solubility at 24 h: 13 µg/mL
[2]; pH 7.4, aqueous buffer, buffered salt solution pH 7.4, shaken at 25° C. for 24 h
  solubility at 24 h: 10 µg/mL
[3]
  Electrostatic phenomenon after pulverization: no electrostatic phenomenon
  Angle of repose: 45.8 °
  Carr's index %: 30%
  ρbulk: 0.477 g/mL
  ρtapped: 0.683 g/mL
[4]
  Hygroscopic weight gain (%): 0.11%
  Moisture absorbability results: no or almost no moisture absorbability
